Source: patent US20250136722A1, “CYTOTOXICITY TARGETING CHIMERAS” (GLAXOSMITHKLINE INTELLECTUAL PROPERTY DEVELOPMENT LIMITED, priority 2021, published 2025)
Where “and” joins values, the source holds several entries; their conditions need not be identical. Equal values may be shown once. Where a name gives a salt, the structure may show the parent alone.

The compounds below were run against T1, CHOK1 cells engineered to overexpress human CCR2 (Homo sapiens, UniProt P41597) (assay: Antibody dependent cellular cytotoxicity (ADCC) reporter assay (Example 199)). Details: with anti-cotinine antibody SEQ ID NO: 11/12; CHOK1-human CCR2 target cells, Jurkat FcγRIIIa NFAT-luciferase reporter cells; 12-18 hours; read-out: ADCC Reporter Assay pEC50 (converted).
T1 construct: expressed in transfected cells; host or cells: CHOK1 cells
Type: cell-based
Summary of the method: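 Potency is reported as pEC50 from a nonlinear fit, averaged over runs, using luciferase signal divided by that of compound-free wells. The readout comes from NFAT-luciferase Jurkat cells expressing FcγRIIIa, mixed for 12–18 h with human CCR2-overexpressing CHOK1 cells, 1 pM–10 μM ARM compound and 0.01–200 μg/mL Fc-enhanced anti-cotinine IgG1.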

Question: How did the EC50 turn out when CC(C)N(C)[C@@H]1CC[C@H](N2CC[C@H](Nc3ncnc4ccc(C(F)(F)F)cc34)C2=O)[C@H](NC(=O)c2ccnc(CCCOCCOCCOCCOCCNC(=O)[C@H]3CC(=O)N(C)[C@@H]3c3cccnc3)c2)C1 [Example 160, N-((1R,2S,5R)-5-(Isopropyl(methyl)amino)-2-((S)-2-oxo-3-((6-(trifluoromethyl)quinazolin-4-yl)amino)pyrrolidin-1-yl)cyclohexyl)-2-(1-((2S,3S)-1-methyl-5-oxo-2-(pyridin-3-yl)pyrrolidin-3-yl)-1-oxo-5,8,11,14-tetraoxa-2-azaheptadecan-17-yl)isonicotinamide, 3Formic acid salt] was run?
Answer: 2 nM

Question: For CC(C)N(C)[C@@H]1CC[C@H](N2CC[C@H](Nc3ncnc4ccc(C(F)(F)F)cc34)C2=O)[C@H](NC(=O)CCCCOCCCCCCCCOCCCCNC(=O)[C@H]2CC(=O)N(C)[C@@H]2c2cccnc2)C1 [Example 161, (2S,3S)-N-(4-((8-((5-(((1R,2S,5R)-5-(Isopropyl(methyl)amino)-2-((S)-2-oxo-3-((6-(trifluoromethyl)quinazolin-4-yl)amino)pyrrolidin-1-yl)cyclohexyl)amino)-5-oxopentyl)oxy)octyl)oxy)butyl)-1-methyl-5-oxo-2-(pyridin-3-yl)pyrrolidine-3-carboxamide], which EC50 is on record?
Answer: 1.58 nM

Question: For CC(C)N(C)[C@@H]1CC[C@H](N2CC[C@H](Nc3ncnc4ccc(C(F)(F)F)cc34)C2=O)[C@H](NC(=O)C2CCN(c3cnc(NCCOCCOCCNC(=O)[C@H]4CC(=O)N(C)[C@@H]4c4cccnc4)cn3)CC2)C1 [Example 162, N-((1R,2S,5R)-5-(Isopropyl(methyl)amino)-2-((S)-2-oxo-3-((6-(trifluoromethyl)quinazolin-4-yl)amino)pyrrolidin-1-yl)cyclohexyl)-1-(5-((2-(2-(2-((2S,3S)-1-methyl-5-oxo-2-(pyridin-3-yl)pyrrolidine-3-carboxamido)ethoxy)ethoxy)ethyl)amino)pyrazin-2-yl)piperidine-4-carboxamide], which EC50 is on record?
Answer: 1.58 nM

Question: For CC(C)N(C)[C@@H]1CC[C@H](N2CC[C@H](Nc3ncnc4ccc(C(F)(F)F)cc34)C2=O)[C@H](NC(=O)CCCCCCCCC(=O)NCCCCCCCCCCNC(=O)[C@H]2CC(=O)N(C)[C@@H]2c2cccnc2)C1 [Example 165, N^1-((1R,2S,5R)-5-(isopropyl(methyl)amino)-2-((S)-2-oxo-3-((6-(trifluoromethyl)quinazolin-4-yl)amino)pyrrolidin-1-yl)cyclohexyl)-N^10-(10-((2S,3S)-1-methyl-5-oxo-2-(pyridin-3-yl)pyrrolidine-3-carboxamido)decyl)decanediamide], which EC50 is on record?
Answer: 1.26 nM

Question: How did the EC50 turn out when CC(C)N(C)[C@@H]1CC[C@H](N2CC[C@H](Nc3ncnc4ccc(C(F)(F)F)cc34)C2=O)[C@H](NC(=O)CCOCCC(=O)N2CCC3(CCC(C(=O)NCCNC(=O)[C@H]4CC(=O)N(C)[C@@H]4c4cccnc4)CC3)CC2)C1 [Example 167, 3-(3-(3-(((1R,2S,5R)-5-(Isopropyl(methyl)amino)-2-((S)-2-oxo-3-((6-(trifluoromethyl)quinazolin-4-yl)amino)pyrrolidin-1-yl)cyclohexyl)amino)-3-oxopropoxy)propanoyl)-N-(2-((2S,3S)-1-methyl-5-oxo-2-(pyridin-3-yl)pyrrolidine-3-carboxamido)ethyl)-3-azaspiro[5.5]undecane-9-carboxamide] was run?
Answer: 1.26 nM

Question: Which EC50 does the source give for CC(C)N(C)[C@@H]1CC[C@H](N2CC[C@H](Nc3ncnc4ccc(C(F)(F)F)cc34)C2=O)[C@H](NC(=O)[C@H]2CC[C@@H](NC(=O)C3CCC4(CC3)CCN(CCNC(=O)[C@H]3CC(=O)N(C)[C@@H]3c3cccnc3)CC4)CC2)C1 [Example 170, N-((1S,4s)-4-(((1R,2S,5R)-5-(Isopropyl(methyl)amino)-2-((S)-2-oxo-3-((6-(trifluoromethyl)quinazolin-4-yl)amino)pyrrolidin-1-yl)cyclohexyl)carbamoyl)cyclohexyl)-3-(2-((2S,3S)-1-methyl-5-oxo-2-(pyridin-3-yl)pyrrolidine-3-carboxamido)ethyl)-3-azaspiro[5.5]undecane-9-carboxamide] here?
Answer: 1 nM

Question: Which EC50 does the source give for CC(C)N(C)[C@@H]1CC[C@H](N2CC[C@H](Nc3ncnc4ccc(C(F)(F)F)cc34)C2=O)[C@H](NC(=O)C2CCN(C3CCN(C(=O)CCOCCOCCNC(=O)[C@H]4CC(=O)N(C)[C@@H]4c4cccnc4)CC3)CC2)C1 [Example 172, N-((1R,2S,5R)-5-(Isopropyl(methyl)amino)-2-((S)-2-oxo-3-((6-(trifluoromethyl)quinazolin-4-yl)amino)pyrrolidin-1-yl)cyclohexyl)-1′-(3-(2-(2-((2S,3S)-1-methyl-5-oxo-2-(pyridin-3-yl)pyrrolidine-3-carboxamido)ethoxy)ethoxy)propanoyl)-[1,4′-bipiperidine]-4-carboxamide] here?
Answer: 0.794 nM

Question: For CC(C)N(C)[C@@H]1CC[C@H](N2CC[C@H](Nc3ncnc4ccc(C(F)(F)F)cc34)C2=O)[C@H](NC(=O)[C@H]2CC[C@@H](NC(=O)CCOCCOCCNC(=O)CCCNC(=O)[C@H]3CC(=O)N(C)[C@@H]3c3cccnc3)CC2)C1 [Example 176, (2S,3S)-N-(4-((2-(2-(3-(((1S,4s)-4-(((1R,2S,5R)-5-(Isopropyl(methyl)amino)-2-((S)-2-oxo-3-((6-(trifluoromethyl)quinazolin-4-yl)amino)pyrrolidin-1-yl)cyclohexyl)carbamoyl)cyclohexyl)amino)-3-oxopropoxy)ethoxy)ethyl)amino)-4-oxobutyl)-1-methyl-5-oxo-2-(pyridin-3-yl)pyrrolidine-3-carboxamide], which EC50 is on record?
Answer: 0.794 nM and 0.398 nM

Question: For CC(C)N(CCOCCOCCC(=O)N[C@H]1CC[C@@H](C(=O)N[C@@H]2C[C@H](N(C)C(C)C)CC[C@@H]2N2CC[C@H](Nc3ncnc4ccc(C(F)(F)F)cc34)C2=O)CC1)C(=O)CCCNC(=O)[C@H]1CC(=O)N(C)[C@@H]1c1cccnc1 [Example 177], which EC50 is on record?
Answer: 0.501 nM and 0.316 nM

Question: With CC(C)N(C)[C@@H]1CC[C@H](N2CC[C@H](Nc3ncnc4ccc(C(F)(F)F)cc34)C2=O)[C@H](NC(=O)CCCN2CCC3(CCC(C(=O)NCCNC(=O)[C@H]4CC(=O)N(C)[C@@H]4c4cccnc4)CC3)CC2)C1 [Example 183, 3-(4-(((1R,2S,5R)-5-(Isopropyl(methyl)amino)-2-((S)-2-oxo-3-((6-(trifluoromethyl)quinazolin-4-yl)amino)pyrrolidin-1-yl)cyclohexyl)amino)-4-oxobutyl)-N-(2-((2S,3S)-1-methyl-5-oxo-2-(pyridin-3-yl)pyrrolidine-3-carboxamido)ethyl)-3-azaspiro[5.5]undecane-9-carboxamide, 3 Formic acid salt] as the compound, how does the EC50 read?
Answer: 0.501 nM

Question: Which EC50 does the source give for CC(C)N(C)[C@@H]1CC[C@H](N2CC[C@H](Nc3ncnc4ccc(C(F)(F)F)cc34)C2=O)[C@H](NC(=O)C2CCN(C3CCN(C4CCN(CCCCNC(=O)[C@H]5CC(=O)N(C)[C@@H]5c5cccnc5)CC4)CC3)CC2)C1 [Example 185, N-((1R,2S,5R)-5-(isopropyl(methyl)amino)-2-((S)-2-oxo-3-((6-(trifluoromethyl)quinazolin-4-yl)amino)pyrrolidin-1-yl)cyclohexyl)-1″-(4-((2S,3S)-1-methyl-5-oxo-2-(pyridin-3-yl)pyrrolidine-3-carboxamido)butyl)-[1,4′:1′,4″-terpiperidine]-4-carboxamide] here?
Answer: 0.501 nM

Question: How did the EC50 turn out when CC(C)N(C)[C@@H]1CC[C@H](N2CC[C@H](Nc3ncnc4ccc(C(F)(F)F)cc34)C2=O)[C@H](NC(=O)[C@H]2CC[C@H](C3CCN(CCOCCOCCNC(=O)[C@H]4CC(=O)N(C)[C@@H]4c4cccnc4)CC3)CC2)C1 [Example 189, (2S,3S)-N-(2-(2-(2-(4-((1R,4r)-4-(((1R,2S,5R)-5-(Isopropyl(methyl)amino)-2-((S)-2-oxo-3-((6-(trifluoromethyl)quinazolin-4-yl)amino)pyrrolidin-1-yl)cyclohexyl)carbamoyl)cyclohexyl)piperidin-1-yl)ethoxy)ethoxy)ethyl)-1-methyl-5-oxo-2-(pyridin-3-yl)pyrrolidine-3-carboxamide] was run?
Answer: 6.31 nM

Question: Which EC50 does the source give for CC(C)N(C)[C@@H]1CC[C@H](N2CC[C@H](Nc3ncnc4ccc(C(F)(F)F)cc34)C2=O)[C@H](NC(=O)[C@H]2CC[C@@H](NC(=O)CCCOCCCOCCCNC(=O)[C@H]3CC(=O)N(C)[C@@H]3c3cccnc3)CC2)C1 [Example 193, (2S,3S)-N-(3-(3-(4-(((1S,4s)-4-(((1R,2S,5R)-5-(Isopropyl(methyl)amino)-2-((S)-2-oxo-3-((6-(trifluoromethyl)quinazolin-4-yl)amino)pyrrolidin-1-yl)cyclohexyl)carbamoyl)cyclohexyl)amino)-4-oxobutoxy)propoxy)propyl)-1-methyl-5-oxo-2-(pyridin-3-yl)pyrrolidine-3-carboxamide] here?
Answer: 0.398 nM and 0.126 nM

Question: Which EC50 does the source give for CC(C)N(C)[C@@H]1CC[C@H](N2CC[C@H](Nc3ncnc4ccc(C(F)(F)F)cc34)C2=O)[C@H](NC(=O)CCCCCCCCNCCOCCOCCOCCOCCNC(=O)[C@H]2CC(=O)N(C)[C@@H]2c2cccnc2)C1 [Example 195, (2S,3S)-N-(24-(((1R,2S,5R)-5-(Isopropyl(methyl)amino)-2-((S)-2-oxo-3-((6-(trifluoromethyl)quinazolin-4-yl)amino)pyrrolidin-1-yl)cyclohexyl)amino)-24-oxo-3,6,9,12-tetraoxa-15-azatetracosyl)-1-methyl-5-oxo-2-(pyridin-3-yl)pyrrolidine-3-carboxamide, 3Trifluoroacetic acid salt] here?
Answer: 0.158 nM

Question: With CC(C)N(C)[C@@H]1CC[C@H](N2CC[C@H](Nc3ncnc4ccc(C(F)(F)F)cc34)C2=O)[C@H](NC(=O)[C@H]2CC[C@@H](NC(=O)CCOCCCOCCCNC(=O)[C@H]3CC(=O)N(C)[C@@H]3c3cccnc3)CC2)C1 [Example 197, (2S,3S)-N-(3-(3-(3-(((1S,4s)-4-(((1R,2S,5R)-5-(Isopropyl(methyl)amino)-2-((S)-2-oxo-3-((6-(trifluoromethyl)quinazolin-4-yl)amino)pyrrolidin-1-yl)cyclohexyl)carbamoyl)cyclohexyl)amino)-3-oxopropoxy)propoxy)propyl)-1-methyl-5-oxo-2-(pyridin-3-yl)pyrrolidine-3-carboxamide] as the compound, how does the EC50 read?
Answer: 0.251 nM
